Two molecules from paper PMC8012336, “An automated and high-throughput-screening compatible pluripotent stem cell-based test platform for developmental and reproductive toxicity assessment of small molecule compounds” (Cell Biology and Toxicology, 2020) can be followed below.

≈ marks a conversion by molar mass, not a printed value. Like-named read-outs stand apart in the source and are kept apart here.

Common to all, as to type: cell-based, mouse
The test system of one data set is NIH/3T3. Briefly: Manual CellTiter-Glo luminescent cell viability assay (7 d or 5 d). Conditions: in brackets the two individual experiments. On the procedure:
(§1) 96-well cell culture plates were coated with gelatin (0.1%) before plating mESC-D3. All peripheral wells of the assay plate were filled with 200 μl growth media. In order to assess compound toxicity on mESC-D3 and NIH/3T3 cells, cell suspensions of NIH/3T3, and mESC-D3 were prepared in growth media (1 × 10^4 cells/ml) and were transferred to all remaining wells (50 μl/well). A 7-point dilution series in growth media was prepared for each test compound and was transferred to the assay plate 2 h after cell seeding (150 μl/well). Afterward, the cells were incubated in a humidified atmosphere at 37 °C and 5% CO2. Three and 5 days after seeding the cell supernatant was replaced by freshly prepared compound solution (200 μl/well). […] The assay plate was placed on a shaker for 1 min and after another 10 min incubation at room temperature in the dark the luminescence signal was detected on a plate reader.
(§2) Toxicity data from the MTT and CellTiter-Glo Assay was normalized against the vehicle control (100% viability) and plotted against the logarithmic compound concentration.
Background: In ATP-based viability assays light output follows the ATP content of the culture.

In a further data set the test system is mESC-D3. Described as above. The conditions noted are these: in brackets the two individual experiments. On the procedure:
as §1, §2

Experiment in data set [1]: as above
Conditions: mouse, in brackets the two individual experiments. On the procedure: as §1, §2

`NC(=O)NO` [Hydroxyurea, hydroxyurea]: in the data set with NIH/3T3 (5 d), the “Cytotoxicity assay CTG, 5 d IC50 NIH/3T3” value is 3.12 (> 10; 3.12) µg/ml. In the data set on NIH/3T3 (7 d), the “Cytotoxicity assay CTG, 7 d IC50 NIH/ 3T3” value is recorded as 4.83 (> 10; 4.83) µg/ml. For the same molecule, the “Cytotoxicity assay CTG, 5 d IC50 mESC-D3” value in the data set with mESC-D3 (5 d) is given as 3.19 (4.12; 2.26) µg/ml. For the same molecule, the “Cytotoxicity assay CTG, 7 d IC50 mESC-D3” value in the data set with mESC-D3 (7 d) is 2.37 (2.28; 2.46) µg/ml.

Take `O=C1NS(=O)(=O)c2ccccc21` [Saccharin, saccharin]: the IC50 at 5 d is above 1000 mg/L in data set [1] (NIH/3T3 cells, read-out: Cytotoxicity assay CTG, 5 d IC50 NIH/3T3) and 464 mg/L (≈ 2.53 mM) in data set [1] (mESC-D3 cells, read-out: Cytotoxicity assay CTG, 5 d IC50 mESC-D3). For the same molecule, the IC50 at 7 d in data set [1] (NIH/3T3 cells, read-out: Cytotoxicity assay CTG, 7 d IC50 NIH/ 3T3) was above 1000 mg/L; in data set [1] (mESC-D3 cells, read-out: Cytotoxicity assay CTG, 7 d IC50 mESC-D3) it was above 1000 mg/L.
